Structures can show the parent of a compound that is named as a salt. Where two headings read alike, the source gives them in different places.

A short description of the data set: pKa values. Type of data set: physicochemical.

Consider `CN(C)c1ccc(O)c2c1C[C@H]1C[C@H]3[C@H](N(C)C)C(O)=C(C(N)=O)C(=O)[C@@]3(O)C(O)=C1C2=O` [minocycline hydrochloride], for which, where the note is “third of three pKa values, hydrochloride”, the “pKa value (third printed)” value is 9.3.
As usually defined, the pKa is the pH at which an ionisable group is half protonated. On to `CN(C)c1ccc(O)c2c1C[C@H]1C[C@H]3[C@H](N(C)C)C(O)=C(C(N)=O)C(=O)[C@@]3(O)C(O)=C1C2=O` [minocycline], for which the pKa came out at 3.5 (first of three pKa values, read-out: pKa value (first given)); 7.6 (second of three pKa values, read-out: pKa value); 9.2 (third of three pKa values, read-out: pKa value (third printed)).

These data come from patent US11596641B2, “Methods and compositions for treating meibomian gland dysfunction” (priority 2020, dated 2023).
